Experimental data taken from patent publication US20030134865A1, “Modulation of histone deacetylase” (priority 2003, published 2003).

How the values were obtained:
[1] = tested on: HDAC1; assay: HDAC1 expression in A549 cells (Western blot); format: cell-based
Protocol: (§1) FIG. 12. Effect of theophylline on HDAC expression. […]. Band densities were controlled for protein loading by comparison with β-actin expression. Results are shown as relative band densities.
(§2) Western blotting: Immunoprecipitates, whole cell extractions or isolated histones were measured by SDS-PAGE and Western blot analysis using ECL (Amersham, Amersham, UK). Proteins were size-fractionated by SDS-PAGE and transferred to Hybond-ECL membranes. Specific protein bands were detected by ECL according to the manufacturer's instructions.

[2] = tested on: IL-8 release, alveolar macrophages; assay: LPS-induced IL-8 release from alveolar macrophages; format: cell-based, human; details: macrophages from non-smokers
[3] = Double-blind cross-over study of low dose theophylline in mild stable asthmatic subjects; details: 5 weeks low dose theophylline
From the text: Patients: Fifteen mild stable asthmatic subjects (Table 1) receiving treatment with only the inhaled β2-adrenergic agonist aerosol, albuterol, for intermittent relief of wheeze were recruited. […] All patients were atopic as defined by two or more positive skin prick tests to common allergens. […] Current smokers or ex-smokers of more than five pack years and patients with FEV1 less than 80% predicted were excluded.
Fibreoptic bronchoscopy and isolation of BAL macrophages: Subjects attended our bronchoscopy suite at 8.30 am after having fasted from midnight and were pretreated with atropine (0.6 mg iv) and midazolam (5-10 mg iv). Oxygen (31/min) was administered via nasal prongs throughout the procedure and oxygen saturation was monitored with a digital oximeter. Using local anaesthesia with lidocaine (4%) to the upper airways and larynx, a fibreoptic bronchoscope (Olympus BF10) was passed through the nasal passages into the trachea. Bronchoalveolar lavage (BAL) was performed from the right middle lobe using warmed 0.9% NaCl with 4 successive aliquots of 60 mls of 0.9% NaCl. […] Cytospins were prepared and stained with May-Grunwald stain for differential cell counts. Cell viability was assessed using trypan blue exclusion.

[4] = tested on: histone deacetylase (HDAC) activity, A549 cells; assay: Histone deacetylation activity in total cellular extracts of treated A549 cells
Protocol: (B) Effect of Trichostatin A (TSA) on histone deacetylase activity and histone H4 acetylation. Cells were treated with increasing concentrations of TSA for 6 hrs before total cellular proteins were isolated and analysed for deacetylase activity and also histone acetylation by Western blotting using an anti-pan acetylated histone H4 antibody.
Effect of theophylline on histone deacetylase (HDAC) activity in A549 cells. (a) Cells were stimulated with LPS (3 ng/ml) for 24 hours in the presence or absence of theophylline (10^−5 M) or Dex (10^−6 M). Total cellular proteins were extracted and histone deacetylase activity measured. (b) Direct effect of theophylline on HDAC activity. […] Results are expressed as mean±SEM (n=3-5, *p<0.05, **p<0.01).

[5] = tested on: HDAC2; assay: HDAC2 expression in bronchial biopsies of treated asthmatics (Western blot); format: in vivo, human; details: placebo 0.28±0.08, p=0.1
From the text: (§3) FIG. 16. Effect of theophylline on HDAC expression and activity in vivo. (a) Western blot analysis of HDAC1 and HDAC 2 expression in bronchial biopsies from mild asthmatic subjects treated with low dose theophylline (LDT) or placebo. (b) Graphical expression of the effect of LDT and placebo on HDAC1 and HDAC2 expression relative to β-actin. (c) Effect of LDT and P on HDAC activity in bronchial biopsies. N=14.
as §2

[6] = biological target: T1, HDAC3 (Homo sapiens, UniProt O15379); assay: Immunoprecipitated HDAC3 activity; format: cell-based; details: theophylline 10^−5 M
T1 construct: endogenous in cells
From the text: (§4) FIG. 22. Effect of theophylline on HDAC1, HDAC2 and HDAC3 activity.
(§5) Using IP-HAT assays we were able to determine which HDACs were the target for theophylline action.

[7] = tested on: HDAC2; assay: HDAC2 expression in A549 cells (Western blot); format: cell-based; details: for HDAC2 expression: A549 cells
From the text: […]. Proteins were extracted and size fractionated by SDS-PAGE and HDAC2 detected by Western blotting. Densitometric analysis of HDAC2 expression is shown graphically in the lower panel. Data from 3 separate experiments was normalised to β-actin and results expressed as mean±SEM. *p<0.05.
as §1
Immunoprecipitates, whole cell extractions or isolated histones were measured by SDS-PAGE and Western blot analysis using ECL (Amersham, Amersham, UK). Proteins were size-fractionated by SDS-PAGE and transferred to Hybond-ECL membranes. Immunoreactive bands were detected by ECL.
as §2

[8] = tested on: HDAC activity; assay: Total HDAC activity in bronchial biopsies of treated asthmatics; format: in vivo, human; details: placebo 67±12, p<0.05
From the text: as §3

[9] = biological target: T2, HDAC1 (Homo sapiens, UniProt Q13547); assay: Immunoprecipitated HDAC1 activity; format: cell-based; details: theophylline 10^−5 M
T2 construct: endogenous in cells
From the text: as §4, §5

[10] = tested on: HDAC activity, BAL macrophages; assay: HDAC activity in BAL macrophages; format: cell-based, human; details: 24 hours
[11] = biological target: T3, HDAC2 (Homo sapiens, UniProt Q92769); assay: Immunoprecipitated HDAC2 activity; format: cell-based; details: theophylline 10^−5 M
T3 construct: endogenous in cells
From the text: as §4, §5

[12] = tested on: HDAC activity; assay: Direct effect on HDAC activity of nuclear proteins from untreated A549 cells; format: biochemical
Protocol: FIG. 13. […] (a) Direct effect of the PDE4 inhibitor rolipram (10 μM) and the adenosine receptor antagonist CGS-15943 (10 μM) on HDAC activity. […] (b) Direct effect of the MEK inhibitor PD089159 (1 μM) and the p38 MAPK inhibitor SB203580 on theophylline induced HDAC activity.

[13] = tested on: histone acetyltransferase (HAT) activity, A549 cells
Protocol: (a) Cells were stimulated with LPS (3 ng/ml) for 24 hours in the presence or absence of theophylline (10^−5 M) or Dex (10^−6 M). Total cellular proteins were extracted and histone acetylase activity measured. (b) GM-CSF release into the culture medium was measured after 6 hours by ELISA.
After incubation for 10 min at 37° C. cells were stimulated for 6 hr. Histones were isolated and separated by electrophoresis on SDS-16% polyacrylamide gel. Gels were stained with Coommasie brilliant blue and the core histones (H2A, H2B, H3 and H4) excised. The radioactivity in extracted core histones was determined by liquid scintillation counting and normalised to protein level.

[14] = tested on: HDAC1; assay: HDAC1 expression in bronchial biopsies of treated asthmatics (Western blot); format: in vivo, human; details: placebo 0.28±0.09, p<0.05
From the text: as §3, §2

[15] = tested on: HDAC activity, alveolar macrophages; assay: HDAC activity in alveolar macrophages from non-smokers or smokers; details: theophylline 10^−5 M, dexamethasone 10^−10 M
[16] = tested on: GM-CSF release, A549 cells; assay: GM-CSF release from A549 cells (ELISA)
Protocol: Determination of GM-CSF expression was measured by sandwich ELISA (Pharmingen, Lugano, Switzerland) according to the manufacturer's instructions.
GM-CSF ELISA: Determination of GM-CSF expression was measured by sandwich ELISA (Pharmingen, Lugano, Switzerland) according to the manufacturer's instructions.

[17] = theophylline 10^−5 M, dexamethasone 10^−10 M

T2 sequence (Q13547 whole entry): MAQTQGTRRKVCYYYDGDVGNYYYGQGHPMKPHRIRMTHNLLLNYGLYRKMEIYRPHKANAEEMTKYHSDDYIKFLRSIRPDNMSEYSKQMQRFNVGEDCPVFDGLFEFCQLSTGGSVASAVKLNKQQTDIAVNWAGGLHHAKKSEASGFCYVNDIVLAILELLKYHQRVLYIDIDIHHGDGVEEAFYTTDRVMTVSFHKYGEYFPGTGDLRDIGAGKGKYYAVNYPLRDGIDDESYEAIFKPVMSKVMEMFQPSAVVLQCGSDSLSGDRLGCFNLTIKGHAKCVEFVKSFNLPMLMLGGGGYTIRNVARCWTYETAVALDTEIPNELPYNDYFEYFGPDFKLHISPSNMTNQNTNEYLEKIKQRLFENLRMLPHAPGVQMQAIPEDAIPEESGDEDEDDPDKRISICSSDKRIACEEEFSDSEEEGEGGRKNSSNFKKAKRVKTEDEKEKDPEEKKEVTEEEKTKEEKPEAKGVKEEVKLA
T3 sequence (Q92769 whole entry): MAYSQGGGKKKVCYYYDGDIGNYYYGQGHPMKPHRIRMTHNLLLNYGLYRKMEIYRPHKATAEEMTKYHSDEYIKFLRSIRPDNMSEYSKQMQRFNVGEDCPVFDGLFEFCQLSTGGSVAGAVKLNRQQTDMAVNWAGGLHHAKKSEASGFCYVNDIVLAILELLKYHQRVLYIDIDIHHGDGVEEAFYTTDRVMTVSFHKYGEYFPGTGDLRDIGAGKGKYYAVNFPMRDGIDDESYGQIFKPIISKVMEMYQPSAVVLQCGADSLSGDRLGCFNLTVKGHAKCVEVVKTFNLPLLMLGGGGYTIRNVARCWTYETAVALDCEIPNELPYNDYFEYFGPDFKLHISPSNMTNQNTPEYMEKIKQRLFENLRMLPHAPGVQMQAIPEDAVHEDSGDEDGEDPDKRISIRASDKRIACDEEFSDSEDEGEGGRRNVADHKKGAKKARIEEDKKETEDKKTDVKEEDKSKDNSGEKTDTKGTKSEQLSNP
T1 sequence (O15379 whole entry): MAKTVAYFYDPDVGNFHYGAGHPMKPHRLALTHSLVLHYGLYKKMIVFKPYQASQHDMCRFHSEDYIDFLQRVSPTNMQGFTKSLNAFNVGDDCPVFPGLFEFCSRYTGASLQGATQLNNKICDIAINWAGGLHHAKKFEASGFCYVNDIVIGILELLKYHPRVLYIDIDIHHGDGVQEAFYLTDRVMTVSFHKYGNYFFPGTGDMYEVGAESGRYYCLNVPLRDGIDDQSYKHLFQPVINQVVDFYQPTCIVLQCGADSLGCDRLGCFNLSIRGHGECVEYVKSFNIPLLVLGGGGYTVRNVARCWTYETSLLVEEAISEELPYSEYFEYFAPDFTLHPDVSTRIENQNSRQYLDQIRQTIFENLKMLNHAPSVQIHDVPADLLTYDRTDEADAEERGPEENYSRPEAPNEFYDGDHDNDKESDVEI
T1 sequence (Q9Y618 whole entry partner): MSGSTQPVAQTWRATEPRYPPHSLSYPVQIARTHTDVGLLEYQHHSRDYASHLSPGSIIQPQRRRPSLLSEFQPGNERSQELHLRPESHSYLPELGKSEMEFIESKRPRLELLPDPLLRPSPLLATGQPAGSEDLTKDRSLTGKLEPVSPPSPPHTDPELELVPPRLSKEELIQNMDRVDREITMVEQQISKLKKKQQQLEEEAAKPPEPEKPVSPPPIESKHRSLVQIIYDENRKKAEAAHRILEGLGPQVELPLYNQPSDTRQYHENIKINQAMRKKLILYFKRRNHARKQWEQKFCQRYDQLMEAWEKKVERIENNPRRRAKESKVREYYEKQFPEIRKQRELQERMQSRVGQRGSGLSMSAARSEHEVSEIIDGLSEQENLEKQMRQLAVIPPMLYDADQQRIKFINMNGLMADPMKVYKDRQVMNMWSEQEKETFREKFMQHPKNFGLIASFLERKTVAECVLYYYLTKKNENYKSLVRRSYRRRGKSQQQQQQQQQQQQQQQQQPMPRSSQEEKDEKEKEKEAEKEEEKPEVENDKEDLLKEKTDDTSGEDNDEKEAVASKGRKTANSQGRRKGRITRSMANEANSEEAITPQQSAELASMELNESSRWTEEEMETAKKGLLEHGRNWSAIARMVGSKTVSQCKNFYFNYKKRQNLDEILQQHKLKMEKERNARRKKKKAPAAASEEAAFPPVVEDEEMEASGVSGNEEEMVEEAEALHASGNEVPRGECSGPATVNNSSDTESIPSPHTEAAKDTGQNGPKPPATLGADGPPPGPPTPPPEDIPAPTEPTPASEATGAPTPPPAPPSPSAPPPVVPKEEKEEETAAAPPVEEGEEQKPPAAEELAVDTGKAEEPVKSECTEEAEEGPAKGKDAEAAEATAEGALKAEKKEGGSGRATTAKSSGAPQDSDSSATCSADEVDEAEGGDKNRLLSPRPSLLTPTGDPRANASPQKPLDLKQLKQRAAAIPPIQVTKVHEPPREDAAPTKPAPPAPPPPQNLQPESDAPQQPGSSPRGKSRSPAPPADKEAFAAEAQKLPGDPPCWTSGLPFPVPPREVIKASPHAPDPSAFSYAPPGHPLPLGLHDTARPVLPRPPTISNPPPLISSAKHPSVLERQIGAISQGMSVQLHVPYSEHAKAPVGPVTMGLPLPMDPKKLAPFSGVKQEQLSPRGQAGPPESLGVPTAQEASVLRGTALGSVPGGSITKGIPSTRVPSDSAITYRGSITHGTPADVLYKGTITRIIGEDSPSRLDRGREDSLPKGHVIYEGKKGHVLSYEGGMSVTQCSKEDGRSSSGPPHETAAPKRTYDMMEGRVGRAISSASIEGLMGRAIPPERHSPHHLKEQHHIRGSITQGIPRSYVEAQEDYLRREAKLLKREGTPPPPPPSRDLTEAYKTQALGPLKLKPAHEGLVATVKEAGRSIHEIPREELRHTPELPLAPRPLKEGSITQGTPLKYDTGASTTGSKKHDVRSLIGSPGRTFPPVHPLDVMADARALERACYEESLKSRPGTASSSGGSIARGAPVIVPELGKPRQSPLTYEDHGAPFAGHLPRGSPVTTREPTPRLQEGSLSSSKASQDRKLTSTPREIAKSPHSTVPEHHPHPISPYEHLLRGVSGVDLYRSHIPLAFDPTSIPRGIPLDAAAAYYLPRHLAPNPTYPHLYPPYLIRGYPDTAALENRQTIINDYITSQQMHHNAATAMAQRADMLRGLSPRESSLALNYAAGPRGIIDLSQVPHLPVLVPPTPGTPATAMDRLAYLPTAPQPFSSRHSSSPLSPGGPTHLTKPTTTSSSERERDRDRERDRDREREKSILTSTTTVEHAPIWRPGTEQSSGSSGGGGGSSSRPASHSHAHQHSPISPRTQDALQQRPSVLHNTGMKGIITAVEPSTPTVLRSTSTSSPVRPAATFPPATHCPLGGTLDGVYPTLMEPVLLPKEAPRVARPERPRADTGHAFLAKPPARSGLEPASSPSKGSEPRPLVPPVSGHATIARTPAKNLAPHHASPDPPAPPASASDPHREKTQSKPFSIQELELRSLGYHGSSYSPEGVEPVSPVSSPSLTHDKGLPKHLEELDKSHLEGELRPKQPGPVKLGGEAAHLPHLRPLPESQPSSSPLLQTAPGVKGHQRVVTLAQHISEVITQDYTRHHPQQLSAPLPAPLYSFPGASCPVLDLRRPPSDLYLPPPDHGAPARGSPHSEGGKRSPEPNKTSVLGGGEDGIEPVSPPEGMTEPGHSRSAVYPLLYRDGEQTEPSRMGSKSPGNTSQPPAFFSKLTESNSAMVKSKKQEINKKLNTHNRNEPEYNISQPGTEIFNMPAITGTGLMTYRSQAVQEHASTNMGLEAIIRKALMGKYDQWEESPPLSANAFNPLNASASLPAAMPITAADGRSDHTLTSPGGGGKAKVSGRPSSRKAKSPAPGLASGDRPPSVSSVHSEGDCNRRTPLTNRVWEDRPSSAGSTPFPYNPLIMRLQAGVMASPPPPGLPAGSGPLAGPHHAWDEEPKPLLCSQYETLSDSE

For `Cn1c(=O)c2[nH]cnc2n(C)c1=O` [theophylline], the HDAC1 expression ([1]; 24 hours, theophylline 10^−4 M) was “induced”, the HDAC1 expression ([1]; 24 hrs) was “no effect” and the “LPS-induced IL-8 release” value [2] was “no effect”. The BAL eosinophils [3] was 1.7±0.28%, the FEV1 [3] was 3.4±0.09 and the “FEV1 (% predicted)” value [3] was 92.8 ± 2.6%. For the same compound, the Muscosal eosinophils [3] was 1.19 ± 0.43, the NO [3] was 23.2 ± 3.8 and the PC20 methacholine [3] was 1.2±0.35. For the same compound, the PEF am [3] was 469±19, the mucosal eosinophils [3] was 1.19±0.43 eosinophils/high powered field and the BAL eosinophils ([3]; listed as Theophylline) was 1.7 ± 0.28%. The FEV1 ([3]; listed as Theophylline) was 3.42 ± 0.09, the PC20 methacholine ([3]; listed as Theophylline) was 1.2 ± 0.35 and the PEF am ([3]; listed as Theophylline) was 469 ± 19. The “total cell HDAC activity after IL-1β plus H2O2” value ([4]; 4 hrs, theophylline pre-treatment 10^−5 M, 10 min) was “significantly increased”, the “total cell HDAC activity in LPS-stimulated cells” value ([4]; pretreatment 60 min, up to 10^−5 M, measured at 24 hrs) was “significantly increased” and the “HDAC2 expression relative to β-actin” value [5] was 0.49±0.20. For the same compound, the HDAC3 activity [6] was “significant induction”, the “IL-1β+H2O2-induced reduction in HDAC2 expression” value ([7]; 24 hrs) was “restored” and the HDAC2 expression ([7]; 24 hrs) was “no effect”. The HDAC2 expression ([7]; 24 hours) was “no effect”, the “total HDAC activity in biopsies” value [8] was 111±15 dpm/mg protein and the HDAC1 activity [9] was “significant induction”. For the same compound, the “HDAC activity at 10^−4 M” value [10] was “decreased to control levels”, the “concentration of maximal increase in HDAC activity” value [10] was 10^−5 M and the HDAC activity ([10]; rolipram 10 μM) was “concentration-dependent increase”. The HDAC2 activity [11] was “without having any effect”, the “direct effect on HDAC activity at higher concentrations” value ([12]; 10^−4-10^−3 M) was “inhibited HDAC activity” and the “concentration of maximum increase in HDAC activity (direct)” value ([12]; nuclear extracts) was 10^−5 M. The “direct effect on HDAC activity” value ([12]; nuclear extracts, IBMX 500 μM, rolipram 10 μM, CGS-15943 10 μM) was “concentration-dependent increase”, the “basal HAT activity” value [13] was “Neither theophylline nor dexamethasone had any effect” and the “LPS-induced whole cell HAT activity” value ([13]; LPS 3 ng/ml, 24 hrs) was “significant concentration-dependent inhibitory effect”. For the same compound, the “HDAC1 expression relative to β-actin” value [14] was 0.44±0.06, the “HDAC activity, macrophages from non-smokers” value [15] was “significantly enhanced” and the “LPS-induced GM-CSF release” value ([16]; LPS 3 ng/ml) was “not associated with a significant reduction”. For the same compound, the “GM-CSF release after IL-1β plus H2O2, each alone” value [16, 17] was “neither theophylline (10^−5 M) nor dexamethasone (10^−10 M) alone had any effect”, the “IL-1β-stimulated GM-CSF release, each alone” value [16, 17] was “failed to inhibited” and the “decrease in IL-1β-stimulated GM-CSF release” value ([16]; theophylline 10^−5 M, dexamethasone 10^−10 M, alone or combined) was 20%.
